Assay results as given in PMC11555678, “Improved Broad Spectrum Antifungal Drug Synergies with Cryptomycin, a Cdc50-Inspired Antifungal Peptide” (ACS Infectious Diseases, 2024).
Where two headings read alike, the source gives them in different places.

Columns and labels:
Cn Crm1-oe = test: microbe, parasite or virus in culture; type: cell-based, Cryptococcus neoformans; conditions: Cryptococcus neoformans, CRM1OE, 48 h, 37 °C
Description: (§1) Previous studies have shown that modifying microbiological media with salts such as CaCl2 can have a drastic effect on the growth of fungi and their responses to antifungals.[19],[35] In the case of CaCl2, the divalent cation, Ca^2+, is involved in fungal cell stress response. To understand how the peptide activity may involve calcium and stress response, the MICs of KKOO, KKOO-NH2, FLC, and CAS were assessed as a function of the calcium concentration in liquid YPD media. It was observed that calcium enrichment completely desensitized the wild-type strain to KKOO and KKOO-NH2, Tables 7 and 8, respectively. Effects of calcium enrichment on the susceptibility of Cryptococcus to CAS similar to literature values were recorded, Supporting Information, Table S7.[35]
(§2) All microdilution assays with fungi were carried out in accordance with CLSI protocols from M27 for yeasts and M38 for filamentous fungi, respectively, unless otherwise specified.[64],[65] Briefly, 96-well plates were charged with RPMI1640 media, with operating volume in the first column, 200 μL, and half operating volume, 100 μL, in the remaining wells. Drug stock solution in DMSO was aliquoted into the first well in each row. Half of the volume in the dosed well was serially diluted 2-fold until column 11. Column 11 was used as the negative growth control, and column 12 was used as the positive growth control. ON yeast cultures in YPD were washed twice in DD-H2O, resuspended in PBS, and adjusted to 5000 cfu/mL in RPMI. The 96-well plate was inoculated with 100 μL aliquots of cell suspension per well. Plates were incubated at 37 °C for 2 days.

Cn apt1Δ = test: microbe, parasite or virus in culture; type: cell-based, Cryptococcus neoformans; conditions: Cryptococcus neoformans, 48 h, 37 °C, 48 h
Description: as §1, §2

Cn crm1Δ = test: microbe, parasite or virus in culture; type: cell-based, Cryptococcus neoformans; conditions: Cryptococcus neoformans, 48 h, 37 °C
Description: as §1, §2

Cn cdc50Δ = test: microbe, parasite or virus in culture; type: cell-based, Cryptococcus neoformans; conditions: 48 h, 37 °C, 48 h
Description: as §1
(§3) In order to control for the effects of enriching YPD with a divalent cation, MICs and ROS production were also measured as a function of the MgCl2 supplement at the same millimolar concentrations of cation as in the CaCl2-modified experiments. […] No peptide susceptibility changes were observed against Cn cdc50Δ in magnesium-enriched media, Table S9. ROS production in H99 induced by peptide exposure was inhibited after 30 min of treatment in the magnesium-enriched condition, similar to the levels observed in the calcium-enriched media at 16 μg/mL KKOO-NH2, Figure S1. […] The link between peptide activity and calcium homeostasis may be vital in understanding precisely how the peptide kills fungal cells and requires more research to elucidate.
as §2

Cn H99 = test: microbe, parasite or virus in culture; type: cell-based, Cryptococcus neoformans; conditions: Cryptococcus neoformans, H99, 48 h, 37 °C, 48 h, read-out: MIC
Description: as §1, §3, §2

Cg FKS2 S663P = test: Drug synergy (MIC in peptide-supplemented media); type: cell-based, Candida glabrata; conditions: RPMI1640, 37 °C, 48 h
Description: as §2
(§4) To assess drug synergy, the initial media charged to the plate contained the peptide at twice the final operating concentration; the remaining processing steps were identical to the MIC experiment. Upon addition of 100 μL of inoculant, the final operating concentration was achieved. Control MIC plates were prepared alongside drug synergy plates to account for the day-to-day variability in any individual MIC. FIC index is computed using eq 1. All MIC assays and drug synergy assays were completed with two technical replicates per 96-well plate and a minimum of two biological replicates per drug combination. If a difference in MIC between the two technical replicates on the plate were observed, only the higher concentration was reported as the MIC to reduce the possibility of type 1 error (false positive) [drawing 1] 1

Cg FKS1 S629P = test: Drug synergy (MIC in peptide-supplemented media); type: cell-based, Candida glabrata; conditions: RPMI1640, 37 °C, 48 h
Description: as §2, §4

C. auris B11245 = test: microbe, parasite or virus in culture; type: cell-based, Candida auris
Description: as §2

C. glabrata 2001 = type: cell-based, Candida glabrata; conditions: RPMI1640, 37 °C, 48 h
Description: as §2, §4

Cn MRL862 = type: cell-based, Cryptococcus neoformans; conditions: RPMI1640, 37 °C, 48 h
Description: as §2, §4

Which MIC (Cn Crm1-oe; YPD + 0 mM Ca2+) does the source give for `OC(Cn1cncn1)(Cn1cncn1)c1ccc(F)cc1F` [FLC, fluconazole] here?
Its MIC is 1 µg/mL.

What about the MIC (Cn Crm1-oe; YPD + 2.5 mM Ca2+) of the same compound?
The MIC was 2 µg/mL.

And the MIC (Cn Crm1-oe; YPD + 5 mM Ca2+)?
Its MIC is 2 µg/mL.

What about the MIC (Cn Crm1-oe; YPD + 10 mM Ca2+) of the same compound?
Its MIC is 2 µg/mL.

And the MIC (Cn Crm1-oe; YPD + 20 mM Ca2+)?
Its MIC is 2 µg/mL.

What about the MIC (Cn apt1Δ; YPD + 0 mM Ca2+) of the same compound?
Its MIC is 0.25 µg/mL.

What about the MIC (Cn apt1Δ; YPD + 2.5 mM Ca2+) of the same compound?
Its MIC is 0.5 µg/mL.

And the MIC (Cn apt1Δ; YPD + 5 mM Ca2+)?
The MIC was 1 µg/mL.

What about the MIC (Cn apt1Δ; YPD + 10 mM Ca2+) of the same compound?
The MIC was 0.5 µg/mL.

And the MIC (Cn apt1Δ; YPD + 20 mM Ca2+)?
Its MIC is 0.5 µg/mL.

And the MIC (Cn crm1Δ; YPD + 0 mM Ca2+)?
The MIC was 4 µg/mL.

What about the MIC (Cn crm1Δ; YPD + 2.5 mM Ca2+) of the same compound?
The MIC was 4 µg/mL.

What about the MIC (Cn crm1Δ; YPD + 5 mM Ca2+) of the same compound?
Its MIC is 4 µg/mL.

And the MIC (Cn crm1Δ; YPD + 10 mM Ca2+)?
Its MIC is 8 µg/mL.

What about the MIC (Cn crm1Δ; YPD + 20 mM Ca2+) of the same compound?
The MIC was 8 µg/mL.

And the MIC (Cn cdc50Δ; Cryptococcus neoformans, YPD + 0 mM Ca2+)?
The MIC was 0.5 µg/mL.

And the MIC (Cn cdc50Δ; Cryptococcus neoformans, YPD + 2.5 mM Ca2+)?
Its MIC is 0.5 µg/mL.

And the MIC (Cn cdc50Δ; Cryptococcus neoformans, YPD + 5 mM Ca2+)?
The MIC was 0.5 µg/mL.

What about the MIC (Cn cdc50Δ; Cryptococcus neoformans, YPD + 10 mM Ca2+) of the same compound?
Its MIC is 0.25 µg/mL.

What about the MIC (Cn cdc50Δ; Cryptococcus neoformans, YPD + 20 mM Ca2+) of the same compound?
The MIC was 0.25 µg/mL.

And the MIC (Cn cdc50Δ; YPD + 0 mM Mg2+, unit not given)?
Its MIC is “½”.

And the MIC (Cn cdc50Δ; YPD + 2.5 mM Mg2+, unit not given)?
The MIC was “¼”.

What about the MIC (Cn cdc50Δ; YPD + 5 mM Mg2+, unit not given) of the same compound?
The MIC was “¼”.

And the MIC (Cn cdc50Δ; YPD + 10 mM Mg2+, unit not given)?
The MIC was 1/8.

And the MIC (Cn cdc50Δ; YPD + 20 mM Mg2+, unit not given)?
The MIC was 1/16.

What about the MIC (Cn H99; YPD + 0 mM Ca2+) of the same compound?
The MIC was 8 µg/mL.

And the MIC (Cn H99; YPD + 0 mM Mg2+)?
The MIC was 4 µg/mL.

And the MIC (Cn H99; YPD + 2.5 mM Ca2+)?
Its MIC is 8 µg/mL.

And the MIC (Cn H99; YPD + 2.5 mM Mg2+)?
The MIC was 4 µg/mL.

And the MIC (Cn H99; YPD + 5 mM Ca2+)?
Its MIC is 8 µg/mL.

And the MIC (Cn H99; YPD + 5 mM Mg2+)?
Its MIC is 2 µg/mL.

And the MIC (Cn H99; YPD + 10 mM Ca2+)?
The MIC was 8 µg/mL.

And the MIC (Cn H99; YPD + 10 mM Mg2+)?
Its MIC is 2 µg/mL.

And the MIC (Cn H99; YPD + 20 mM Ca2+)?
Its MIC is 8 µg/mL.

What about the MIC (Cn H99; YPD + 20 mM Mg2+) of the same compound?
The MIC was 2 µg/mL.

And the “MIC of antifungal in combination with KKOO” value (Cg FKS2 S663P; +0 μg/mL KKOO (control))?
Its value is 0.5 µg/mL.

What about the “MIC of antifungal in combination with KKOO-NH2” value (from here on “MIC … with KKOO-NH2”) (Cg FKS2 S663P; +0 μg/mL KKOO-NH2 (control)) of the same compound?
Its value is 0.5 µg/mL.

What about the “MIC … with KKOO-NH2” value (Cg FKS2 S663P; +1 μg/mL KKOO-NH2) of the same compound?
The value was 0.5 µg/mL.

What about the “MIC of antifungal in combination with KKOO” value (Cg FKS2 S663P; +1 μg/mL KKOO) of the same compound?
Its value is 0.5 µg/mL.

And the “MIC … with KKOO-NH2” value (Cg FKS2 S663P; +2 μg/mL KKOO-NH2)?
The value was 0.5 µg/mL.

And the “MIC of antifungal in combination with KKOO” value (Cg FKS2 S663P; +2 μg/mL KKOO)?
The value was 0.5 µg/mL.

And the “MIC … with KKOO-NH2” value (Cg FKS2 S663P; +4 μg/mL KKOO-NH2)?
The value was 0.5 µg/mL.

And the “MIC of antifungal in combination with KKOO” value (Cg FKS2 S663P; +4 μg/mL KKOO)?
The value was 0.5 µg/mL.

What about the “MIC of antifungal in combination with KKOO” value (Cg FKS1 S629P; +0 μg/mL KKOO (control)) of the same compound?
The value was 2 µg/mL.

And the “MIC … with KKOO-NH2” value (Cg FKS1 S629P; +0 μg/mL KKOO-NH2 (control))?
The value was 2 µg/mL.

And the “MIC … with KKOO-NH2” value (Cg FKS1 S629P; +1 μg/mL KKOO-NH2)?
The value was 2 µg/mL.

And the “MIC of antifungal in combination with KKOO” value (Cg FKS1 S629P; +1 μg/mL KKOO)?
Its value is 2 µg/mL.

And the “MIC … with KKOO-NH2” value (Cg FKS1 S629P; +2 μg/mL KKOO-NH2)?
Its value is 2 µg/mL.

What about the “MIC of antifungal in combination with KKOO” value (Cg FKS1 S629P; +2 μg/mL KKOO) of the same compound?
Its value is 2 µg/mL.

What about the “MIC … with KKOO-NH2” value (Cg FKS1 S629P; +4 μg/mL KKOO-NH2) of the same compound?
Its value is 1 µg/mL.

What about the “MIC of antifungal in combination with KKOO” value (Cg FKS1 S629P; +4 μg/mL KKOO) of the same compound?
The value was 2 µg/mL.

And the MIC (C. auris B11245; Candidozyma auris, B11245, 48 h)?
Its MIC is > 128 µg/mL.

What about the MIC (C. auris B11245; compound alone, RPMI1640, 37 °C, 48 h, * = paradoxical growth observed (CAS)) of the same compound?
Its MIC is >128 µg/mL.

What about the “MIC of antifungal in combination with KKOO” value (C. glabrata 2001; +0 μg/mL KKOO (control)) of the same compound?
Its value is 8 µg/mL.

And the “MIC … with KKOO-NH2” value (C. glabrata 2001; +0 μg/mL KKOO-NH2 (control))?
The value was 8 µg/mL.

And the “MIC … with KKOO-NH2” value (C. glabrata 2001; +1 μg/mL KKOO-NH2)?
Its value is 8 µg/mL.

What about the “MIC of antifungal in combination with KKOO” value (C. glabrata 2001; +1 μg/mL KKOO) of the same compound?
The value was 8 µg/mL.

What about the “MIC … with KKOO-NH2” value (C. glabrata 2001; +2 μg/mL KKOO-NH2) of the same compound?
The value was 8 µg/mL.

What about the “MIC of antifungal in combination with KKOO” value (C. glabrata 2001; +2 μg/mL KKOO) of the same compound?
The value was 8 µg/mL.

What about the “MIC … with KKOO-NH2” value (C. glabrata 2001; +4 μg/mL KKOO-NH2) of the same compound?
The value was 8 µg/mL.

And the “MIC of antifungal in combination with KKOO” value (C. glabrata 2001; +4 μg/mL KKOO)?
Its value is 4 µg/mL.

And the “MIC of antifungal in combination with KKOO” value (C. glabrata 2001; +8 μg/mL KKOO)?
Its value is 4 µg/mL.

And the “MIC of antifungal in combination with KKOO” value (Cn MRL862; +0 μg/mL KKOO (control))?
Its value is 32 µg/mL.

What about the “MIC … with KKOO-NH2” value (Cn MRL862; +0 μg/mL KKOO-NH2 (control)) of the same compound?
The value was 32 µg/mL.

And the “MIC … with KKOO-NH2” value (Cn MRL862; +1 μg/mL KKOO-NH2)?
Its value is 32 µg/mL.

What about the “MIC of antifungal in combination with KKOO” value (Cn MRL862; +1 μg/mL KKOO) of the same compound?
Its value is 64 µg/mL.

And the “MIC … with KKOO-NH2” value (Cn MRL862; +2 μg/mL KKOO-NH2)?
The value was 32 µg/mL.

What about the “MIC of antifungal in combination with KKOO” value (Cn MRL862; +2 μg/mL KKOO) of the same compound?
The value was 32 µg/mL.

And the “MIC … with KKOO-NH2” value (Cn MRL862; +4 μg/mL KKOO-NH2)?
The value was 32 µg/mL.

What about the “MIC of antifungal in combination with KKOO” value (Cn MRL862; +4 μg/mL KKOO) of the same compound?
The value was 32 µg/mL.
